{
  "source": "patent US9661856B1",
  "about": "“Synergy of plant antimicrobials with silver” (The Arizona Board of Regents on behalf of the University of …, priority 2012, dated 2017)",
  "key": {"[1]": {"test_system": "Escherichia coli strain 25922", "assay": "Reduction of Escherichia coli in PBS after exposure to plant antimicrobials with and without silver (spread plate count)", "type": "cell-based", "settings": "for effect of combination with silver ions on antimicrobial activity against E. coli: plant antimicrobial combined with silver ions in solution; for reduction with silver alone treatment (in words): 100 ppb silver alone, within 30 min of exposure", "description": "Escherichia coli strain 25922 was obtained from the American Type Culture Collection (ATCC; Manassas, Va., USA) and was maintained on Tryptic Soy Agar (TSA; Difco, Sparks, Md., USA) with incubation for 18 to 24 h at 37° C. Prior to the start of each experiment, an Erlenmeyer flask containing 100 ml of Tryptic Soy Broth (TSB; Difco, Sparks, Md., USA) was inoculated with the organism and incubated on an orbital shaker (Model […]; New Brunswick Scientific, Edison, N.J., USA) at 300 rpm at 37° C. overnight. […] Beckman Coulter, Inc., Fullerton, Calif., USA). The pelleted cells were washed by re-suspension in 100 ml of physiological saline (0.85% NaCl) followed by centrifugation as described previously. This step was repeated one additional time. The final pellet was resuspended in 10 ml of sterile phosphate buffered saline (PBS; pH 7.4; Sigma-Aldrich, St. Louis, Mo., USA). […] A stock solution of silver (Ag) ions was prepared immediately prior to the start of each experiment by adding AgNO3 (J.T. Baker, Phillipsburg, N.Y., USA) to distilled water to obtain an Ag ion concentration of 100 mg/l (100 ppm). The Ag concentration was measured at the beginning of each experiment by a colorimetric procedure using a Hach DR/2000 spectrophotometer (Anonymous 1989). […] (Berkley, Calif., USA). […] Louis, Mo., USA). The plant antimicrobials were dissolved and diluted (volume to volume) to specific test concentrations using PBS. […] A control with E. coli in PBS but no added antimicrobials was also included. Purified stocks of the bacteria were added separately to the antimicrobial solutions (final concentration of […]) and the flasks were placed on an orbital shaker (300 rpm) for the duration of the experiment. Experiments were performed in triplicate at room temperature (24° C.) in 50 ml polypropylene conical tubes (Becton, Dickinson and Company, Franklin Lakes, N.J., USA). At predetermined time intervals, 100 μl samples were collected and neutralized with Dey Engley (D/E) neutralizing broth (Difco, Sparks, Md., USA) at a ratio of 1:10. The D/E is neutralizes the antimicrobial effect of silver whereas the plant antimicrobials are neutralized via dilution. Samples were assayed for bacterial enumeration immediately. Bacterial samples were ten-fold serially diluted in physiological saline as needed and the surviving bacteria were enumerated using the spread plate method on duplicate plates of Levine Eosin Methylene Blue Agar (EMB; Becton, Dickinson and Company, Franklin Lakes, N.J., USA). The plates were incubated at 37° C. for 24 hours and the surviving bacterial colonies were counted. Data were reported as logarithmic reduction using the formula […], where N0 was the concentration of E. coli at time zero and Nt was the surviving concentration at time t. A Student's t-test was used to determine if there were significant differences between the control and the antimicrobial treatments (the reductions were compared to the control after 30 min) or between the various treatments (for each exposure time)."}, "[2]": {"settings": "humans; based on epidemiological and pharmacokinetic data (WHO); cited from earlier work"}},
  "data": [
    {"smiles": "Cc1ccc(C(C)C)cc1O", "note": "[Carvacrol, carvacrol]", "values": [
      {"measurement": "effect of combination with silver ions on antimicrobial activity against E. coli", "setting": "[1]", "result": "enhanced or synergistic"}
    ]},
    {"smiles": "O=C/C=C/c1ccccc1", "note": "[Cinnamaldehyde]", "values": [
      {"measurement": "exposure time within which the reduction was statistically significant (P≦0.05) compared to the control", "setting": "[1]; 0.05% citral, 0.02% carvacrol or 0.1% cinnamaldehyde, alone or with 100 ppb Ag, PBS", "result": "≤ 20", "unit": "min"},
      {"measurement": "Reduction (Log10 ± standard deviation) in the population of Escherichia coli", "setting": "[1]; Table 3, 1 min, 0.1% cinnamaldehyde (vol/vol), silver 100 ppb, PBS, inoculum 2.1 × 10^7 CFU/ml", "result": "0.05 ± 0.04", "unit": "Log10"},
      {"measurement": "Reduction (Log10 ± standard deviation) in the population of Escherichia coli", "setting": "[1]; Table 3, 5 min, 0.1% cinnamaldehyde (vol/vol), silver 100 ppb, PBS, inoculum 2.1 × 10^7 CFU/ml", "result": "0.18 ± 0.04", "unit": "Log10"},
      {"measurement": "Reduction (Log10 ± standard deviation) in the population of Escherichia coli", "setting": "[1]; Table 3, 10 min, 0.1% cinnamaldehyde (vol/vol), silver 100 ppb, PBS, inoculum 2.1 × 10^7 CFU/ml", "result": "0.17 ± 0.07", "unit": "Log10"},
      {"measurement": "Reduction (Log10 ± standard deviation) in the population of Escherichia coli", "setting": "[1]; Table 6, cinnamaldehyde 0.1% (vol/vol) in PBS, 1 min, inoculum 2.1 × 10^7 CFU/ml", "result": "0.05 ± 0.04", "unit": "Log10"},
      {"measurement": "effect of combination with silver ions on antimicrobial activity against E. coli", "setting": "[1]", "result": "enhanced or synergistic"}
    ]},
    {"smiles": "CC(C)=CCCC(C)=CC=O", "note": "[Citral]", "values": [
      {"measurement": "Reduction (Log10 ± standard deviation) in the population of Escherichia coli", "setting": "[1]; Table 1, 1 min, 0.05% citral (vol/vol), silver 100 ppb, PBS, inoculum 1.7 × 10^7 CFU/ml", "result": "0.06 ± 0.03", "unit": "Log10"},
      {"measurement": "effect of combination with silver ions on antimicrobial activity against E. coli", "setting": "[1]", "result": "enhanced or synergistic"}
    ]},
    {"smiles": "[Ag+]", "note": "[Silver]", "values": [
      {"measurement": "reduction with silver alone treatment (in words)", "setting": "[1]", "result": "no reductions were observed"},
      {"measurement": "reduction with silver alone treatment (in words)", "setting": "[1]; listed as Ag", "result": "No significant reductions"},
      {"measurement": "Reduction (Log10 ± standard deviation) in the population of Escherichia coli", "setting": "[1]; Table 1, 30 min, 0.05% citral (vol/vol), silver 100 ppb, PBS, inoculum 1.7 × 10^7 CFU/ml", "result": "0.01 ± 0.04", "unit": "Log10"},
      {"measurement": "Reduction (Log10 ± standard deviation) in the population of Escherichia coli", "setting": "[1]; Table 2, 5 min, 0.02% carvacrol (vol/vol), silver 100 ppb, PBS, inoculum 2.9 × 10^7 CFU/ml", "result": "0.08 ± 0.12", "unit": "Log10"},
      {"measurement": "Reduction (Log10 ± standard deviation) in the population of Escherichia coli", "setting": "[1]; Table 2, 10 min, 0.02% carvacrol (vol/vol), silver 100 ppb, PBS, inoculum 2.9 × 10^7 CFU/ml", "result": "0.00 ± 0.06", "unit": "Log10"},
      {"measurement": "Reduction (Log10 ± standard deviation) in the population of Escherichia coli", "setting": "[1]; Table 2, 30 min, 0.02% carvacrol (vol/vol), silver 100 ppb, PBS, inoculum 2.9 × 10^7 CFU/ml", "result": "0.00 ± 0.04", "unit": "Log10"},
      {"measurement": "Reduction (Log10 ± standard deviation) in the population of Escherichia coli", "setting": "[1]; Table 3, 30 min, 0.1% cinnamaldehyde (vol/vol), silver 100 ppb, PBS, inoculum 2.1 × 10^7 CFU/ml", "result": "0.12 ± 0.10", "unit": "Log10"},
      {"measurement": "Reduction (Log10 ± standard deviation) in the population of Escherichia coli", "setting": "[1]; Table 4, 1 min, 0.5% allspice oil (vol/vol), silver 100 ppb, PBS, inoculum 6.6 × 10^6 CFU/ml", "result": "0.00 ± 0.03", "unit": "Log10"},
      {"measurement": "Reduction (Log10 ± standard deviation) in the population of Escherichia coli", "setting": "[1]; Table 4, 5 min, 0.5% allspice oil (vol/vol), silver 100 ppb, PBS, inoculum 6.6 × 10^6 CFU/ml", "result": "0.00 ± 0.08", "unit": "Log10"},
      {"measurement": "Reduction (Log10 ± standard deviation) in the population of Escherichia coli", "setting": "[1]; Table 4, 10 min, 0.5% allspice oil (vol/vol), silver 100 ppb, PBS, inoculum 6.6 × 10^6 CFU/ml", "result": "0.00 ± 0.12", "unit": "Log10"},
      {"measurement": "Reduction (Log10 ± standard deviation) in the population of Escherichia coli", "setting": "[1]; Table 4, 20 min, 0.5% allspice oil (vol/vol), silver 100 ppb, PBS, inoculum 6.6 × 10^6 CFU/ml", "result": "0.00 ± 0.23", "unit": "Log10"},
      {"measurement": "Reduction (Log10 ± standard deviation) in the population of Escherichia coli", "setting": "[1]; Table 4, 30 min, 0.5% allspice oil (vol/vol), silver 100 ppb, PBS, inoculum 6.6 × 10^6 CFU/ml", "result": "0.29 ± 0.32", "unit": "Log10"},
      {"measurement": "No Observable Adverse Effect Level (NOAEL), lifetime limit of silver", "setting": "[2]", "result": 10, "unit": "g"}
    ]}
  ]
}
